System: human prostate
Assay: Contractile responses of human prostate
Conditions: antagonist affinity estimate against (−)-noradrenaline contractions of prostatic tissue strips; single antagonist concentration, incubated 2 hours
Description: Contractile Responses of Human Prostate
Prostatic tissue was cut into longitudinal strips (approximately 3×2×10 mm) and suspended in organ baths under a resting tension of 1 g in Krebs Ringer bicarbonate of the following composition (mM): NaCl (119), KCl (4.7), CaCl2 (2.5), KH2PO4 (1.2), MgSO4 (1.2), NaHCO3 (25), glucose (11), and gassed with 95% O2/5% CO2.
The solution also contained […]. Tissues were exposed to a sensitising dose of (−)-noradrenaline ([…]) and washed over a 45 minute period. Isometric contractions were obtained in response to cumulative additions of (−)-noradrenaline to obtain control curves in all tissues. A further curve was then generated in the presence or absence of antagonist (incubated for 2 hours). Antagonist affinity estimates (pA2) were determined using a single concentration of competing antagonist, […] where the dose ratio (DR), relative to corresponding controls, was produced by a single concentration of antagonist [A], assuming competitive antagonism and Schild regression close to unity.

Question: `COc1cc2nc(N3CCCN(C(=O)N4CCOCC4)CC3)nc(N)c2cc1OCC1CCC1` [Example 3, 4-Amino-6-cyclobutylmethyloxy-7-methoxy-2-[4-(4-morpholinecarbonyl)-1,4-diazepan-1-yl]quinazoline] was tested. Which pA2 value did it give?
Answer: 9.2

— patent US6417194B1, “Quinolines and quinazolines useful in therapy” (Pfizer, Inc., priority 1997, dated 2002)
